Assay results reported in patent US20220274983A1, “JAK KINASE INHIBITOR AND USE THEREOF” (JIANGSU CAREPHAR PHARMACEUTICAL CO., LTD., priority 2019, published 2022).
Each block holds one molecule with its values, some of them ahead of it.

Tests used:
JAK1 = JAK1 (Homo sapiens, UniProt P23458); assay: JAK kinase inhibitory activity, HTRF biochemical assay
Method: (§1) The compounds of the above embodiments were applied to the detection and screening of JAK kinase inhibitory activity.
(§2) A corresponding volume of DMSO was added to each well of a first 96-well plate. 20-30 μL of 100-200 μM stock solution of different test compounds were added to each well. The mixture was shaken and mixed for 3 min. All of the compounds were subjected to 3× serial dilution. 60-80 μL Kinase buffer was added to each well of a second 96-well plate, and 1-2 μL of the solution taken from each well of the first 96-well plate was added to the corresponding well of the second 96-well plate. The mixture was shaken and mixed for 3 min. 5 μL of compound dilution taken from each well of the second compound dilution plate was transferred to the corresponding well of a 384-well test plate. 1-2 μL TK Substrate-biotin was added to each well of the test plate. 1-2 μL of enzyme mixture was added to each well. At the same time, a blank well without enzyme was set. 1-2 μL of ATP solution was added to each well, the plate was sealed and reacted at room temperature. The reaction time was as follows: JAK1: 2 h, JAK2: 30 min, JAK3: 30 min, and TYK2: 50 min. 3-5 μL of Streptavidin-XL665 and 3-5 μL of TK Antibody-cryptate were added to each well, the plate was sealed and allowed to stand at room temperature for 30 min to complete the reaction.
(§3) The percentage of inhibition was calculated based on the following formula:
(§4) Inhibition %=[(Ratiomax−Ratiocompound)/(Ratiomax−Ratiomin)]×100%
(§5) Ratiocompound is the HTRF ratio at a given compound concentration, Ratiomin is the HTRF ratio added to the blank well, and Ratiomax is the HTRF ratio without adding the compound. GraphPad Prism 5.0 software was used to plot a sigmoid dose-inhibition rate curve with a non-linear regression model and calculate the IC50 value.

JAK2 = JAK2 (Homo sapiens, UniProt O60674); assay: as above
Sequence of JAK2 (O60674 whole entry, species assumed): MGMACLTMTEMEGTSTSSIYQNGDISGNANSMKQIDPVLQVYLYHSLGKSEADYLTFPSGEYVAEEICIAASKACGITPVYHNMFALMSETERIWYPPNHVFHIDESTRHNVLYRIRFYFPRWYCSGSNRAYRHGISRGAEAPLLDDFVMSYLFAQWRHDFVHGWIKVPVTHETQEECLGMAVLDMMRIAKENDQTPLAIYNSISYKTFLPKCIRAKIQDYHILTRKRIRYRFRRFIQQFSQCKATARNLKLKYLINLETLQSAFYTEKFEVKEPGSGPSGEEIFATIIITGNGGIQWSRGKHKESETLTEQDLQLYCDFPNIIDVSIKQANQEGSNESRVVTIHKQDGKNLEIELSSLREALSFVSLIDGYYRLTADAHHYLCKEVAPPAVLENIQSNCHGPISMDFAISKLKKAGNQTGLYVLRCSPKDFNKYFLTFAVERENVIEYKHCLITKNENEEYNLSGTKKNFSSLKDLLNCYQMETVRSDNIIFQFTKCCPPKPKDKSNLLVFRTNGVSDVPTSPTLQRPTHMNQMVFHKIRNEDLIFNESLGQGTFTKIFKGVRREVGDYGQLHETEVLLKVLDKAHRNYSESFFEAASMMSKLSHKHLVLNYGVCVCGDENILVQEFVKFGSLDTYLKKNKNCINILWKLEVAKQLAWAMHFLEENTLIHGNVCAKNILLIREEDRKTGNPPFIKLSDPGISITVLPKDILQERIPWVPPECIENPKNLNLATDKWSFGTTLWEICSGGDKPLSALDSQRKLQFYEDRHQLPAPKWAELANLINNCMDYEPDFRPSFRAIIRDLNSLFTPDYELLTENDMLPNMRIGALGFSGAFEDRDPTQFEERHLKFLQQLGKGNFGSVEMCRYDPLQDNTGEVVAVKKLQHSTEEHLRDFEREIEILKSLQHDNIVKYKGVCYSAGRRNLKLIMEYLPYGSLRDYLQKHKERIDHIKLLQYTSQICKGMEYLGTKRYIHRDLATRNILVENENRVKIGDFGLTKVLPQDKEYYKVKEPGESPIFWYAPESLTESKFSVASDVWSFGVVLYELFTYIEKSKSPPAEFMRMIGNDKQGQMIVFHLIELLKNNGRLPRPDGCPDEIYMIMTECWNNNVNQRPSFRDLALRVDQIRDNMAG
Method: as §1, §2, §3, §4, §5

rat CIA model [1] = assay: Hindfoot foot volume in rat CIA model; assay type: in vivo, Lewis rats; details: CIA rats, hindfoot, 2 mg/kg oral gavage once daily for 2 w
Body weight of CIA rats = details: 2 mg/kg oral gavage once daily for 2 w
Method: (§6) Lewis rats (female, 10-12 weeks old) were obtained from Beijing Vital River Laboratory Animal Technology Co., Ltd. The rats were on a light and dark alternation for 12 h, and the environment was kept at a temperature of 23±2° C. and a humidity of 40-70%.
(§7) Type II collagen solution (2 mg/mL) was prepared with 0.05 M acetic acid solution to allow to be fully dissolved, and placed overnight in the dark at 4° C. During the test, 2 mg/mL type II collagen (C II) solution and 4 mg/mL complete Freund's adjuvant (CFA) solution were mixed in equal volumes under ice bath conditions to fully emulsify. On day 0, an emulsion prepared by mixing equal volumes of C II (2 mg/mL) and CFA (4 mg/mL) was injected intracutaneously into the base of the tail of experimental rats for primary immunization, and on day 7, secondary booster immunization was performed.
(§8) The therapeutic effect of the test compound was tested in a rat CIA model. The rats were randomly divided into groups with 8 animals in each group. All animals were immunized on day 0 and boosted on day 7.
Therefore, the differences in body weight and foot volume after the onset of arthritis compared with the negative group, respectively, can be used to evaluate the therapeutic effect in the rat model. The experimental data were expressed as Mean±SEM; the data between the two groups was tested by unpaired t-test and p<0.05 was considered as a significant difference.

rat CIA model [2] = assay: Arthritis index (AI) of extremities in rat CIA model; details: CIA rats, 2 mg/kg oral gavage once daily for 2 w, score 0-16;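 also: rats immunized with type II collagen plus complete Freund's adjuvant on day 0, boosted day 7, groups of 8, each paw graded 0-4 for swelling or redness, higher means worse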
Method: as §6, §7, §8
Foot volume was scored for the swelling of four toes at the same time, the score for each foot was 0-4, and the highest score for each rat was 16. 0—no swelling, normal appearance; 1—mild swelling or redness of the ankle joint, wrist joint or finger joint; 2—moderate swelling or redness of the ankle joint, wrist joint or finger joint; 3—severe swelling or redness of the ankle joint, wrist joint or finger joint; 4—very severe swelling or redness of the ankle joint, wrist joint or finger joint.

Sequence of JAK1 (P23458 whole entry, species assumed): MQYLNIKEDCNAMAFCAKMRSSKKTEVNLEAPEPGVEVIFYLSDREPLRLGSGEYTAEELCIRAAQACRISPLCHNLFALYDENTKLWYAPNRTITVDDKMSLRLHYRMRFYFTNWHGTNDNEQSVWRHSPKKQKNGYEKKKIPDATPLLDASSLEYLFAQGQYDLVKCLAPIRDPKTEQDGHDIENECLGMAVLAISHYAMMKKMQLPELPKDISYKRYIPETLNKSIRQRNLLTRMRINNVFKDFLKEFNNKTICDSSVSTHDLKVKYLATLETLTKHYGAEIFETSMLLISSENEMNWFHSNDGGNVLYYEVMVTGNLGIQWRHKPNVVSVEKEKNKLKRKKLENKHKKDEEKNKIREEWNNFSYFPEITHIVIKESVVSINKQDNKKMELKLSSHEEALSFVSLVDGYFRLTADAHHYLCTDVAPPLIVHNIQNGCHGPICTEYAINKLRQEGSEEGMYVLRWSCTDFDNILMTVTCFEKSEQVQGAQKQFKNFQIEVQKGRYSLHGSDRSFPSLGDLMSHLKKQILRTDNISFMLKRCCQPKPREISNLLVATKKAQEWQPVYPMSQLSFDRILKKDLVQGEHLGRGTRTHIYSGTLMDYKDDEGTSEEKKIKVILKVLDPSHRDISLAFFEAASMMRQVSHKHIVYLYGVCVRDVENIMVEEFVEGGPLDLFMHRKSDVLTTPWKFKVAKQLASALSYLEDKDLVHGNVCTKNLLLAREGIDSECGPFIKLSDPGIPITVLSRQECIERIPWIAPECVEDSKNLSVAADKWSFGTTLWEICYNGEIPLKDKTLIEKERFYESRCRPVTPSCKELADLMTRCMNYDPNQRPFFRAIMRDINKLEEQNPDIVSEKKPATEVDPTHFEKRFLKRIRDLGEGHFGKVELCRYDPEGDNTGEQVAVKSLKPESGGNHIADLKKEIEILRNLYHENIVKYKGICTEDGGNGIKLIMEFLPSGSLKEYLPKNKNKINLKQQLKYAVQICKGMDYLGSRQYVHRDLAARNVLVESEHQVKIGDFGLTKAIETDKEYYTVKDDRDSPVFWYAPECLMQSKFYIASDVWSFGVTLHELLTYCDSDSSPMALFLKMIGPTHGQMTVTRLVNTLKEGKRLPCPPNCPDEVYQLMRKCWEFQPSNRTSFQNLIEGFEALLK

IC50 (JAK1): > 500 nM
SMILES: O=C(NCCc1nccs1)c1ccc(-c2cccc3nc(NC(=O)C4CC4)nn23)s1 [EXP-17, 5-[2-[2-thiazole-2-ethyl]carboxamido]-thiophene-[1,2,4]triazolo[1,5-a]pyridine-2-cyclopropanecarboxamide]

IC50 (JAK1): > 500 nM
IC50 (JAK2): > 500 nM
SMILES: O=C(Nc1nc2cccc(-c3ccc(CN4CCS(=O)(=O)CC4)s3)n2n1)[C@H]1C[C@H]1C(F)(F)F [EXP-8]

IC50 (JAK1): 30 to 50 nM
IC50 (JAK2): 30 to 50 nM
SMILES: Cc1cc(-c2cccc3nc(NC(=O)C4CC4)nn23)sc1CN1CCC(F)(F)CC1 [EXP-13]

IC50 (JAK1): 50 to 500 nM
IC50 (JAK2): 50 to 500 nM
SMILES: O=C(Nc1nc2cccc(-c3ccc(CN4CCC(C(F)(F)F)CC4)s3)n2n1)[C@H]1C[C@@H]1F [EXP-11]

IC50 (JAK1): > 500 nM
IC50 (JAK2): > 500 nM
SMILES: CC1(C(=O)Nc2nc3cccc(-c4ccc(CN5CCS(=O)(=O)CC5)s4)n3n2)CC1(F)F (stereo not shown) [EXP-7]

IC50 (JAK1): > 500 nM
SMILES: O=C(Nc1nc2cccc(-c3ccc(CN4CCC(OC(F)(F)F)CC4)s3)n2n1)[C@H]1C[C@@H]1F (relative stereo) [EXP-19]

IC50 (JAK1): 50 to 500 nM
SMILES: O=C(Nc1nc2cccc(-c3ccc(CN4CCC(F)(F)CC4)s3)n2n1)[C@H]1C[C@@H]1F (relative stereo) [EXP-12, trans-N-[5-[5-[(4,4-difluoro-1-piperidinyl)methyl]-2-thienyl]-[1,2,4]triazolo[1,5-a]pyridin-2-yl]-2-fluorocyclopropanecarboxamide]

SMILES: CC[C@@H]1CN(C(=O)NCC(F)(F)F)C[C@@H]1c1cnc2cnc3[nH]ccc3n12 [Upadacitinib, upadacitinib, reference compound]
Foot volume (ml)/Day (rat CIA model [1]; day 0): 2.611 ± 0.022 mL
Foot volume (ml)/Day (rat CIA model [1]; day 8): 2.599 ± 0.020 mL
Foot volume (ml)/Day (rat CIA model [1]; day 11): 2.738 ± 0.110 mL
Foot volume (ml)/Day (rat CIA model [1]; day 14): 3.675 ± 0.314 mL
Foot volume (ml)/Day (rat CIA model [1]; day 17): 4.126 ± 0.301 mL
Foot volume (ml)/Day (rat CIA model [1]; day 21): 4.591 mL
Foot volume (ml)/Day (rat CIA model [1]; day 24): 4.403 mL
Foot volume (ml)/Day (rat CIA model [1]; day 28): 3.990 mL
Body weight (g)/Day (Body weight of CIA rats; day 0): 172.3 ± 1.8 g
Body weight (g)/Day (Body weight of CIA rats; day 8): 170.4 ± 2.1 g
Body weight (g)/Day (Body weight of CIA rats; day 11): 169.4 ± 2.8 g
Body weight (g)/Day (Body weight of CIA rats; day 14): 170 ± 2.2 g
Body weight (g)/Day (Body weight of CIA rats; day 17): 170.8 ± 3.3 g
Body weight (g)/Day (Body weight of CIA rats; day 21): 168.6 ± 2.9 g
Body weight (g)/Day (Body weight of CIA rats; day 24): 165.9 ± 2.9 g
Body weight (g)/Day (Body weight of CIA rats; day 28): 170.5 ± 3.1 g
Arthritis index/Day (rat CIA model [2]; day 0): 0 ± 0
Arthritis index/Day (rat CIA model [2]; day 8): 0 ± 0
Arthritis index/Day (rat CIA model [2]; day 11): 0.63 ± 0.38
Arthritis index/Day (rat CIA model [2]; day 14): 3.50 ± 0.73
Arthritis index/Day (rat CIA model [2]; day 17): 5.50 ± 1.00
Arthritis index/Day (rat CIA model [2]; day 21): 9.00 ± 1.07
Arthritis index/Day (rat CIA model [2]; day 24): 9.38 ± 0.71

IC50 (JAK1): 50 to 500 nM
IC50 (JAK2): 50 to 500 nM
SMILES: O=C(Nc1nc2cccc(-c3ccc(CN4CCS(=O)(=O)CC4)s3)n2n1)[C@@H]1C[C@H]1C(F)(F)F [EXP-9]

IC50 (JAK1): 50 to 500 nM
IC50 (JAK2): 50 to 500 nM
SMILES: O=C(NCCc1nccs1)c1cc(-c2cccc3nc(NC(=O)C4CC4)nn23)cs1 [EXP-18]

IC50 (JAK1): > 500 nM
SMILES: O=C(Nc1nc2cccc(-c3nnc(CN4CCS(=O)(=O)CC4)o3)n2n1)C1CC1 [EXP-15, N-[5-[5-[(1,1-dioxo-1,4-thiazin-4-)methyl]-1,3,4-oxadiazole-2-]-[1,2,4]triazolo[1,5-a]pyridine-2-]cyclopropylcarboxamide]

IC50 (JAK1): > 500 nM
SMILES: O=C(Nc1nc2cccc(-c3ccc(COCCc4cn[nH]c4)s3)n2n1)C1CC1 [EXP-16, N-[5-[5-[2-(1H-pyrazol-4-yl)-ethoxymethyl]-2-thienyl]-[1,2,4]triazolo[1,5-a]pyridin-2-yl]cylopropanecarboxamide]

IC50 (JAK1): > 500 nM
IC50 (JAK2): > 500 nM
SMILES: O=C(Nc1nc2cccc(-c3nnc(CN4CCS(=O)(=O)CC4)s3)n2n1)C1CC1 [EXP-14, N-[5-[5-[(1,1-dioxo-1,4-thiazin-4-)methyl]-1,3,4-thiadiazol-2-]-[1,2,4]triazolo[1,5-a]pyridine-2-]cyclopropylcarboxamide]

IC50 (JAK1): > 500 nM
SMILES: O=C(Nc1nc2cccc(-c3ccc(CN4CCS(=O)(=O)CC4)s3)n2n1)C1(F)CC1 [EXP-10]
